In brackets after ≈: the same amount, converted by molar mass.
Legend:
Colon = assay: Drug uptake in C57BL6 mouse colon at 20 mg/kg, po after 8 hrs by LC-MS/MS; format: ADME, organism-based; settings: in vivo
[1] = Tmax in C57BL6/J mouse at 20 mg/kg, po by LC-MS/MS analysis; format: ADME, organism-based; settings: in vivo
[2] = 1-octanol/phosphate buffer solution partition coefficient, log D of the compound at pH 7.4 for 2 hrs by LC-MS/MS method; format: physicochemical
[3] = Half life in C57BL6/J mouse at 20 mg/kg, po by LC-MS/MS analysis; format: ADME, organism-based; settings: in vivo
[4] = Apparent permeability from apical to basolateral side in human Caco2 cells assessed as drug recovery at 10 uM after 1 hr by LC-MS/MS analysis; format: ADME, cell-based; settings: Caco-2, read-out: Drug recovery
[5] = Apparent permeability from basolateral to apical side in human Caco2 cells at 10 uM after 1 hr by LC-MS/MS analysis; format: ADME, cell-based; settings: Caco-2
in vivo = settings: C57BL6/J, mouse, faeces, po, 20 mg/kg
physchem = settings: PBS/MeOH
[6] = Apparent permeability from apical to basolateral side in human Caco2 cells at 10 uM after 1 hr by LC-MS/MS analysis; format: ADME, cell-based; settings: Caco-2
[7] = Apparent permeability from basolateral to apical side in human Caco2 cells assessed as drug recovery at 10 uM after 1 hr by LC-MS/MS analysis; format: ADME, cell-based; settings: Caco-2, read-out: Drug recovery
Ileum = assay: Drug uptake in C57BL6 mouse ileum at 20 mg/kg, po after 8 hrs by LC-MS/MS; format: ADME, organism-based; settings: in vivo
[8] = Half life in CD-1 mouse liver microsomes at 1 uM in presence of NADPH by LC-MS/MS analysis; format: ADME, microsome
[9] = Cmax in C57BL6/J mouse gallbladder at 20 mg/kg, po by LC-MS/MS analysis; format: ADME, organism-based, Gall bladder; design: dose 20 mg/kg, route oral
[10] = Cmax in C57BL6/J mouse plasma at 20 mg/kg, po by LC-MS/MS analysis; format: ADME, organism-based; design: dose 20 mg/kg, route oral
[11] = Cmax in C57BL6/J mouse liver at 20 mg/kg, po by LC-MS/MS analysis; format: ADME, organism-based; design: dose 20 mg/kg, route oral
[12] = AUC in C57BL6/J mouse at 20 mg/kg, po by LC-MS/MS analysis; format: ADME, organism-based; settings: in vivo
[13] = Apparent permeability from basolateral to apical side in human Caco2 cells assessed as drug recovery at 5 uM after 1 hr by LC-MS/MS analysis; format: ADME, cell-based; settings: Caco-2, read-out: Drug recovery
[14] = Apparent permeability from apical to basolateral side in human Caco2 cells assessed as drug recovery at 5 uM after 1 hr by LC-MS/MS analysis; format: ADME, cell-based; settings: Caco-2, read-out: Drug recovery
[15] = Apparent permeability from basolateral to apical side in human Caco2 cells at 5 uM after 1 hr by LC-MS/MS analysis; format: ADME, cell-based; settings: Caco-2
[16] = Apparent permeability from apical to basolateral side in human Caco2 cells at 5 uM after 1 hr by LC-MS/MS analysis; format: ADME, cell-based; settings: Caco-2

Drug uptake (Colon)	Tmax [1] [min]	logD at 2 h [2]	half-life [3] [min]	recovery at 1 h, 10 µM [4] [%]	Papp B→A at 1 h, 10 µM [5] [×10⁻⁶ cm/s]	dose excreted at 24 h (in vivo) [%]	solubility at 24 h (physchem) [µM]	Papp A→B at 1 h, 10 µM [6] [×10⁻⁶ cm/s]	recovery at 1 h, 10 µM [7] [%]	Drug uptake (Ileum)	half-life at 1 µM [8] [min]	Cmax [9] [nM]	Cmax [10] [nM]	Cmax [11] [nM]	AUC [12] [ng·h/mL]	recovery at 1 h, 5 µM [13] [%]	recovery at 1 h, 5 µM [14] [%]	Papp B→A at 1 h, 5 µM [15] [×10⁻⁶ cm/s]	Papp A→B at 1 h, 5 µM [16] [×10⁻⁶ cm/s]	Structure (SMILES)
Active	45	0.8	317	80.1	19	100	> 200	0.031	102	Active	1.2	11000	102	385	96.2	–	–	–	–	COc1ccc(N(C)c2cnc(SCc3c(F)cc(OCCCS(=O)(=O)O)cc3F)n2-c2ccc(F)cc2)cc1OC.N
–	–	0.9	–	69.3	0.22	–	–	0.016	99.6	–	–	–	–	–	–	–	–	–	–	COc1ccc(N(C)c2cnc(SCc3c(F)cc(OCCC[N+]45CCN(CC4)CC5)cc3F)n2-c2ccc(F)cc2)cc1OC.O=C[O-]
–	–	3.5	–	–	–	–	6.3 (≈ 3.06 µg/mL)	–	–	–	0.7	–	–	–	–	106	84.4	5.47	5.32	COc1ccc(N(C)c2cnc(SCc3c(F)cccc3F)n2-c2ccc(F)cc2)cc1OC
–	–	–	–	–	0.24	–	–	0.08	–	–	–	–	–	–	–	–	–	–	–	COc1ccc(N(C)c2cnc(SCc3c(F)cc(C#CC[N+](C)(C)C)cc3F)n2-c2ccc(F)cc2)cc1OC.[I-]
–	15	1	97	69.8	–	88	–	–	93.4	–	–	9030	100	–	48.5	–	–	–	–	COc1ccc(N(C)c2cnc(SCc3c(F)cc(C#CC[N+](C)(C)C)cc3F)n2-c2ccc(F)cc2)cc1OC.O=C[O-]
